Test results taken from publication PMC6796659, “Topoisomerase IB poisons induce histone H2A phosphorylation as a response to DNA damage in Leishmania infantum” (International Journal for Parasitology: Drugs and Drug …, 2019).

Key:
[1] = tested on: iRFP L. infantum amastigotes infecting mouse splenocytes; assay: Antileishmanial activity on iRFP L. infantum amastigotes in ex vivo murine splenic explants; assay type: cell-based, Leishmania infantum
Protocol: Five-week BALB/c female mice infected intraperitoneally with 1.5 × 10^9 metacyclic iRFP L. infantum promastigotes were sacrificed to eviscerate their spleens, which were processed to obtain a suspension of primary splenocytes. Briefly, freshly dissected spleens were washed with cold phosphate-buffered saline (PBS), cut in small pieces and incubated for 20 min with 5 mL of 2 mg/mL collagenase D (Sigma) prepared in buffer (10 mM HEPES, pH 7.4, 150 mM NaCl, 5 mM KCl, 1 mM MgCl2 and 1.8 mM CaCl2). Then, the cell suspension was passed through a 100 μm cell strainer, harvested by centrifugation (500×g for 7 min at 4 °C), washed twice with PBS, and resuspended in RPMI medium (Gibco) supplemented with 10 mM HEPES, 1 mM sodium pyruvate, 1xRPMI 1640 vitamin mix, 10% (v/v) FBS, 50 U/mL penicillin and 50 μg/mL streptomycin. The cell suspension was cultured in 384-well optical bottom black plates (Thermo Scientific) at 37 °C under 5% CO2 atmosphere.
(§1) The antileishmanial activity of the compounds was tested both in promastigotes and in amastigotes infecting mouse splenocytes. For this purpose, 384-well optical bottom black plates (Thermo Scientific) were seeded either with free-living iRFP L. infantum promastigotes or with splenic explants infected with iRFP L. infantum amastigotes, which were incubated at 26 °C or 37 °C, respectively. The viability of both iRFP L. infantum stages was measured by recording the fluorescence emitted by viable cells at 708 nm in an Odyssey (Li-Cor) infrared imaging system after a 72-h period of incubation with different concentrations of the compounds. Dose-response curves were obtained by plotting the infrared fluorescence emission of viable parasites vs. different concentrations of testing compounds and were fitted by nonlinear analysis using the Sigma-Plot 10.0 statistical package. The reduction of infrared emission with respect to the negative control was used to determine the 50% effective concentration to kill the parasites (EC50). Both controls and treated groups were tested with DMSO (drug vehicle) concentrations below 0.1%. All compounds and controls were assayed in triplicate.

[2] = tested on: iRFP L. infantum promastigotes; assay: Antileishmanial activity on free-living iRFP L. infantum promastigotes (infrared fluorescence viability); assay type: cell-based; details: Leishmania infantum, 72 h, 26 °C
Protocol: Histone phosphorylation assays were performed in promastigotes of L. infantum BCN 150 strain, whereas the antiparasitic activity of the compounds was assessed on the transgenic strain that constitutively expresses the irfp gene encoding the infrared iRFP protein (iRFP L. infantum strain) ([Calvo-Álvarez et al., 2015]), which is derived from L. infantum BCN 150. Both strains were grown at 26 °C in M-199 medium (Gibco) supplemented with 25 mM HEPES pH 7.2, 0.1 mM adenine, 0.0005% (w/v) hemin, 2 μg/mL biopterin, 0.0001% (w/v) biotin, 10% (v/v) heat-inactivated fetal bovine serum (FBS) and an antibiotic cocktail comprising 50 U/mL penicillin and 50 μg/mL streptomycin.
as §1

[3] = tested on: L. infantum promastigotes; assay: Cell cycle analysis by flow cytometry (propidium iodide); assay type: cell-based, Leishmania infantum; details: 1 μM single dose, 0, 8, 24, 48 h
Protocol: One million promastigotes untreated or treated with 1 μM of different indenoisoquinolines were harvested by centrifugation after 0, 8, 24 and 48 h exposure. Promastigotes were washed twice with PBS and fixed by 1 h incubation with 70% methanol at 4 °C. After incubation, cells were centrifuged, washed again with PBS and resuspended in 0.5 mL of citrate buffer (45 mM MgCl2, 20 mM MOPS, 30 mM sodium citrate, 0.1% Triton X-100, pH = 7). Finally, samples with RNAase (50 μg/mL) and propidium iodide ([…]) were incubated at 37 °C during 30 min and analyzed at 589 nm by flow cytometry (Cyan ADP Dako).

[4] = target: T1, human Top IB (hTopIB) (Homo sapiens, UniProt P11387); assay: Relaxation of supercoiled pSK DNA by recombinant hTopIB; assay type: biochemical; details: Table 1
T1 construct: made in house
T1 sequence (P11387 1-765): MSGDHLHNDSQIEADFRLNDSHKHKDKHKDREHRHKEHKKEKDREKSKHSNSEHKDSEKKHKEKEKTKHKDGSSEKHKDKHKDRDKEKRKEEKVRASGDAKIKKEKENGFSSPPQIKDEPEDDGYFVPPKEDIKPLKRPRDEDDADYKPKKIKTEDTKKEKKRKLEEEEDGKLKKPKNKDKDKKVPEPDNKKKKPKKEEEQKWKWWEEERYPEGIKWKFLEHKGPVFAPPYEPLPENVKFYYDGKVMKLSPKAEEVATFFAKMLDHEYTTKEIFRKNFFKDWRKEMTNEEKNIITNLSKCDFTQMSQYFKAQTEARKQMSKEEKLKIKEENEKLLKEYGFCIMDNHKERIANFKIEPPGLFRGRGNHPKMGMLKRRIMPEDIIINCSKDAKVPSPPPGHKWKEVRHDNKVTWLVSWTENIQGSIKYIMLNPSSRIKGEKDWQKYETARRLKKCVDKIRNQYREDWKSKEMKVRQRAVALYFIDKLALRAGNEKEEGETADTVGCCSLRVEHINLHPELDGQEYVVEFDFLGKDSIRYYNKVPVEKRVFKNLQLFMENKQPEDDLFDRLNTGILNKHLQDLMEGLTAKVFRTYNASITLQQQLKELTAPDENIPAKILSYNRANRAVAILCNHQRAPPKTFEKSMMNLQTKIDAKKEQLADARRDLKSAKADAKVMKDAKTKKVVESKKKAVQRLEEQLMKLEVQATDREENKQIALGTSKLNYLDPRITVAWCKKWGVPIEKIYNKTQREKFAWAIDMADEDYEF
Protocol: (§2) Expression and purification of LTopIB and hTopIB were carried out according to a previously standardized protocol ([Villa et al., 2003]). The effect of indenoisoquinolines (compounds 1 to 20) on recombinant LTopIB and hTopIB was determined by measuring the relaxation of negatively supercoiled pBluescript-SK DNA plasmid (pSK). Briefly, in a total volume of 20 μL, 100 U of recombinant TopIB were incubated with 0.5 μg of pSK DNA in 10 mM Tris-HCl buffer (pH 7.5), 5 mM MgCl2, 5 mM dithiothreitol (DTT), 0.1 mM EDTA, […] bovine serum albumin, and 150 mM KCl. Different concentrations of indenoisoquinolines were also added. Following a 4-min incubation period at 25 °C, reactions were stopped with 1% (w/v) SDS, and incubated for one extra hour at 37 °C in the presence of 1 mg/mL proteinase K. Subsequently, samples were extracted with 1 vol phenol-chloroform mixture and were loaded on a 1% agarose gel containing 0.1 μg/mL ethidium bromide. The gel was run for 16 h at 4 V/cm, and the images were acquired using a G-Box system (Syngene, United Kingdom).

[5] = tested on: Leishmania topoisomerase IB (LTopIB); assay: Relaxation of supercoiled pSK DNA by recombinant LTopIB; assay type: biochemical; details: Table 1
Protocol: as §2

NCCCn1c2c(c3ccccc3c1=O)C(=O)c1ccccc1-2 [Compound 2]
SI (Selectivity Index) ([1]; CC50 (splenocytes)/EC50 (amastigotes)): 4.9
EC50 ([1]; Leishmania infantum, Splenocyte, splenic-infecting iRFP L. infantum amastigotes, 72 h, 37 °C, read-out: EC50 (μM) L. infantum amastigotes): 0.12 ± 0.05 µM
EC50 [2]: 0.34 ± 0.03 µM
effect on cell cycle of promastigotes [3]: did not arrest the cell cycle
hTopIB inhibition [4]: ++ (inhibition at 10 μM)
LTopIB inhibition [5]: +++ (inhibition at 1 μM)
